{"source": "ChEMBL document CHEMBL3886504", "about": "“Pyridinones/pyrazinones, method of making, and method of use thereof” (2016)", "molecular_target": "Tyrosine-protein kinase BTK (Homo sapiens, UniProt Q06187)", "sequence (Q06187 whole entry)": "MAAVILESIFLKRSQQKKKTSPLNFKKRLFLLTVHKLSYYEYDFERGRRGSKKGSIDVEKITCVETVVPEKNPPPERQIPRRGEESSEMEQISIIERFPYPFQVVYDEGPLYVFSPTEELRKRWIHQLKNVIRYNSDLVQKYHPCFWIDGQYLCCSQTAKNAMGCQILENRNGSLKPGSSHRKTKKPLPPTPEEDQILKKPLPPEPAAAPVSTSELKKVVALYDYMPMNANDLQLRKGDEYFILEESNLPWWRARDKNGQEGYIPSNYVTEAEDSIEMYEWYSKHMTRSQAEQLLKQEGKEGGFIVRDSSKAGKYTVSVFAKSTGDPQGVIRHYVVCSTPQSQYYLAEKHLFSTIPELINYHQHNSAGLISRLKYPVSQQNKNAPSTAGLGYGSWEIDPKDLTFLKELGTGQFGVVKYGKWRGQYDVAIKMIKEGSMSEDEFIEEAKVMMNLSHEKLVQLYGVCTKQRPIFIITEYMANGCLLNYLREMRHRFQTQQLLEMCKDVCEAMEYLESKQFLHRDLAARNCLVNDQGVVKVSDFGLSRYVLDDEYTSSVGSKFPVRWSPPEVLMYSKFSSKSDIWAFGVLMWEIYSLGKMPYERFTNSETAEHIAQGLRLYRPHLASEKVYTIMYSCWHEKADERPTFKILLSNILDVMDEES", "assay": "Biochemical Btk Assay: A generalized procedure for a standard biochemical Btk Kinase Assay that can be used to test Formula I compounds is as follows. A master mix minus Btk enzyme is prepared containing 1x Cell Signaling kinase buffer (25 mM Tris-HCl, pH 7.5, 5 mM beta-glycerophosphate, 2 mM dithiothreitol, 0.1 mM Na3VO4, 10 mM MgCl2), 0.5 μM Promega PTK Biotinylated peptide substrate 2, and 0.01% BSA. A master mix plus Btk enzyme is prepared containing 1x Cell Signaling kinase buffer, 0.5 μM PTK Biotinylated peptide substrate 2, 0.01% BSA, and 100 ng/well (0.06 mU/well) Btk enzyme. Btk enzyme is prepared as follows: full length human wildtype Btk (accession number NM-000061) with a C-terminal V5 and 6xHis tag was subcloned into pFastBac vector for making baculovirus carrying this epitope-tagged Btk.", "note": "pIC50: −log10 of the molar value.", "data": [{"smiles": "Cc1c(-c2cn(C)c(=O)c(Nc3ccc(C4C(=O)N(C)CCN4C)cc3)n2)cccc1N1Cc2cc(C(C)(C)C)ccc2C1=O", "note": "(stereo not drawn)", "values": [{"measurement": "pIC50", "result": 7.53}]}, {"smiles": "Cc1c(-c2cn(C)c(=O)c(Nc3ccc(C4C(=O)N(C)CCN4C)cc3)n2)cccc1N1Cc2cc(N3CCCCC3)ccc2C1=O", "note": "(stereo not drawn)", "values": [{"measurement": "pIC50", "result": 6.61}]}, {"smiles": "Cc1c(-c2cn(C)c(=O)c(Nc3ccc(C(=O)N4CCOCC4)cc3)n2)cccc1N1Cc2cc(C(C)(C)C)ccc2C1=O", "values": [{"measurement": "pIC50", "result": 7.44}]}]}
